US6670132B2, “Determining non-nucleic acid molecule binding to target by competition with nucleic acid ligand” (Gilead Sciences, Inc., priority 1999, dated 2003)
[NH2-N] = 2'-amino-2'-deoxy sugar (2'-aminopyrimidine nucleotide) (N: the base)

How the values were obtained:
[1] = test system: wheat germ agglutinin (WGA); experiment: Wheat germ agglutinin aptamer competition assay (displacement of 32P-labeled 11.20, nitrocellulose filter binding); parameters: species or system Triticum vulgare; conditions: 10 nM 32P end-labeled 11.20, 10 nM WGA, room temperature
Procedure: Small molecule oligosaccharides were screened for their ability to compete with WGA aptamer 11.20 for binding to wheat germ agglutinin protein. The small molecule (or cold 11.20) competitors at varying concentrations were mixed with the 5′-32P end-labeled 11.20 ligand at room temperature. Then WGA was added to the mixture and allowed to equilibrate for 60 minutes at room temperature. The competition mixtures (90 μL volume) all had 32P end-labeled 11.20 at 10 nM, WGA at 10 nM and were in 25 mM Hepes, 137 mM NaCl, 2.7 mM KCl, 1 mM MgCl2, 1 mM CaCl2, 0.067% human serum albumin (HSA), at pH 7.4 (HBSMC). Aptamer bound to WGA was separated from free aptamer by filtration through pre-washed […] nitrocellulose membrane filters. Filters were washed with 5 mL HBSMC at room temperature. The filters were placed in tubes with scintillant and the radioactivity counted to quantitate the fraction of 32P end-labeled 11.20 bound at each competitor concentration.
Competition experiments were analyzed by the following equation to determine the concentration of free protein, [PF], as a function of the total concentration of competitor added, [CT]:
[PF]=[PT]/(1+KdR[RT]/(1+KdR[PF])+KdC[CT]/(1+KdC[PF])) (1)
(§1) where KdR is the binding constant of species R to the protein (assuming 1:1 stoichiometry) and KdC is the binding constant of species C, the competitor, to the protein (assuming 1:1 stoichiometry). Equation (1) was solved to self-consistency of [PF] to a precision of 1×10^−15. Using these values of [PF], the concentration of protein-ligand complex [PR] as a function of [CT] was determined by the following equation:
[PR]=KdR[RT][PF](1+KdC[PF]) (2)
Since the experimental data are expressed as %[PR], the calculated concentration of [PR] was normalized by [PR0], the [PR] in the absence of the competitor. [PR0] was obtained by solving equation (1) where [CT]=0. The maximum (M) and minimum (B) %[PR] were allowed to float during the analysis as shown in the following equation:
%[PR]=[PR]/[PR0](M−B)+B (3)
A non-linear least-squares fitting procedure was used as described by Bates and Watts (Bates, D. M. and Watts, D. G. 1988 in Non-Linear Regression Analysis and its Applications, D. M. Bates and D. G. Watts editors, John Wiley & Sons, NY, N.Y.). […]
A group of carbohydrates related to GlcNAc3 were tested for their ability to displace radiolabeled 11.20 from WGA. […] Structures of competitors used in this assay are shown in FIGS. 3A-C along with the Kdc values calculated from the competition profiles (FIGS. 4A-D) according to equations (1)-(3). […]

[2] = test system: WGA; conditions: cited from earlier work; for concentration required to completely inhibit WGA-mediated agglutination: tested previously (U.S. Pat. No. 5,780,228)
[3] = target: T1, PDGF-BB (Homo sapiens, UniProt P01127); experiment: PDGF aptamer competition assay (displacement of 32P-labeled 20tb, nitrocellulose filter binding); conditions: competition with 1.16 nM 32P end-labeled 20tb, 1.0 nM PDGF-BB, 37° C.; calculated from competition profiles by equations (1)-(3); read-out: KdC
T1 construct: purchased R&D Systems (Minneapolis, Minn.)
T1 sequence (P01127 82-190 limits assumed): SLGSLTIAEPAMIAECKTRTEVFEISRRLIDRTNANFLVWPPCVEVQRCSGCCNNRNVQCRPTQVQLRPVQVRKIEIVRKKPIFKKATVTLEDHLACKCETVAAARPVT
Procedure: Small molecule oligoanions were screened for their ability to compete with PDGF aptamer 20tb for binding to the PDGF-BB protein. The small molecule (or cold 20tb) competitors at varying concentrations were mixed with the 5′-^32P end-labeled 20tb ligand at room temperature. PDGF was then added to the mixture and allowed to equilibrate for 45 minutes at room temperature followed by 15 minutes at 37° C. The competition mixtures (90 μL volume) all had ^32P end-labeled 20tb at 1.16 nM, PDGF-BB at 1 nM and were in 25 mM Hepes, 137 mM NaCl, 2.7 mM KCl, 1 mM MgCl2, 1 mM CaCl2, 0.067% human serum albumin (HSA), at pH 7.4 (HBSMC). […] The filters were placed in tubes with scintillant and the radioactivity counted to quantitate the fraction of ^32P end-labeled 20tb bound at each competitor concentration.
Competition experiments were analyzed by the following equation to determine the concentration of free protein, [PF], as a function of the total concentration of competitor added, [CT]: […]
as §1, with “Equation (1) was solved to self-consistency of [PF] to a precision of 1×10^−15.” left out, “equation: […]” for “equation:”

[4] = target: T1, PDGF-BB; experiment: Binding of PDGF aptamers to PDGF-BB
Text: For the PDGF competition assay, a DNA PDGF aptamer sequence identified previously was used. The aptamer and methods used herein are described in detail in Example One. Aptamers obtained in this experiment bind preferentially to the B-chain of PDGF in a manner that inhibits receptor binding and PDGF-BB-induced DNA synthesis in vitro. Using photo-crosslinking experiments, it has been shown that a specific nucleotide in the aptamer interacts with phenylalanine-84 of the PDGF B-chain which is located near the region of PDGF know to be involved in receptor binding (Green, L. S. et al. (1996) Biochemistry 35, 14413-24). […] Thus, the aptamer used for competition binding experiments, 20tb, is a 27-mer that binds to PDGF-BB with a Kd of 0.5 nM.
A panel of oligoanions, mostly in the naphthalene sulfonic acid class, were screened for their ability to displace a ^32P-radiolabeled aptamer (20tb) from PDGF-BB. […] A nitrocellulose filter binding method was used to separate bound from unbound aptamer. Structures of competitors used in this competition assay are shown in FIGS. 1A-C along with the Kdc values calculated form the competition profiles (FIG. 2) according to equations (1)-(3) (Experimental Methods). For all competition experiments, the concentration of the ^32P end-labeled 20tb aptamer and PDGF-BB was 1.16 nM and 1.0 nM, respectively. […]

## CC(=O)N[C@H]1[C@H](O[C@H]2[C@H](O)[C@@H](NC(C)=O)C(O)O[C@@H]2CO)O[C@H](CO)[C@@H](O)[C@@H]1O (some centres unmarked) [(GlcNAc)2, N,N′-diacetylchitobiose]
[1]
  ability to displace radiolabeled 11.20 from WGA: best ligands

## CC(=O)N[C@H]1[C@H](O[C@H]2[C@H](O)[C@@H](NC(C)=O)C(O)O[C@@H]2CO)O[C@H](CO)[C@@H](O[C@@H]2O[C@H](CO)[C@@H](O[C@@H]3O[C@H](CO)[C@@H](O)[C@H](O)[C@H]3NC(C)=O)[C@H](O)[C@H]2NC(C)=O)[C@@H]1O (some centres unmarked) [(GlcNAc)4, N,N′,N″,N′″-tetraacetyltetraose]
[1]
  ability to displace radiolabeled 11.20 from WGA: best ligands

## CC(=O)N[C@H]1[C@H](O[C@H]2[C@H](O)[C@@H](NC(C)=O)C(O)O[C@@H]2CO)O[C@H](CO)[C@@H](O[C@@H]2O[C@H](CO)[C@@H](O)[C@H](O)[C@H]2NC(C)=O)[C@@H]1O (some centres unmarked) [(GlcNAc)3, N,N′,N″-triacetylchitotriose]
[1]
  ability to displace radiolabeled 11.20 from WGA: best ligands
[2]
  concentration required to completely inhibit WGA-mediated agglutination: 18.5 µM

## O=S(=O)(O)c1ccc(N=Nc2c(S(=O)(=O)O)cc3cc(S(=O)(=O)O)cc(O)c3c2O)cc1 [SPADNS, 2-(4-sulfophenylazo)-1,8-dihydroxy-3,6-naphthalene disulfonic acid]
[3]
  Kd: 19 µM

## CC(=O)N[C@H]1C(O)O[C@H](CO)[C@@H](O)[C@@H]1O (stereo partly drawn) [GlcNAc, N-acetyl-D-glucosamine]
[1]
  ability to displace radiolabeled 11.20 from WGA: not a competitor
[2]
  concentration required to completely inhibit WGA-mediated agglutination: 800 µM

## 20tb: synthetic 27-mer DNA oligo, truncated PDGF aptamer, 5′GGGCCGTTTCGGGTTACTTTTAGTCCC (DNA, backbone not given here)
[4]; aptamer binding to PDGF-BB
  Kd: 0.5 nM

## 20ta: synthetic 33-mer DNA oligo, PDGF aptamer, 5′CGGGCGCGTTCTTCGTGGTTACTTTTAGTCCCG (DNA, backbone not given here)
[4]; aptamer binding to PDGF
  Kd: 0.05 nM

## O=S(=O)(O)c1ccc2c(S(=O)(=O)O)cc(S(=O)(=O)O)cc2c1 [naphthalene 1,3,6-trisulfonic acid]
[3]
  Kd: 870 µM

B1: 11.20: 98-mer RNA transcript with 2′aminopyrimidine bases, WGA aptamer (nucleic acid)
chain: GGGAAAAGCGAAUCAUACACAAGAUUGGUCGUACUGGACAGAGCCGUGGUAGAGGGAUUGGGACAAAGUGUCAGCUCCGCCAGAGACCAACCGAGAA
modifications: [NH2-N] at CU, RNA at AG, all phosphodiester, methylation of C not given here
[2]; as described in U.S. Pat. No. 5,780,228
  inhibition of WGA-mediated agglutination of sheep erythrocytes: potently inhibited
